{
  "source": "EPA's ToxValDB 9.5 (doi:10.2903/j.efsa.2013.3212)",
  "key": {"[1]": {"system": "Oncorhynchus mykiss", "conditions": "acute; duration: 96 hours; mortality"}, "[2]": {"system": "Rattus norvegicus", "conditions": "for NOAEL: hematological"}, "[3]": {"system": "Plant", "conditions": "not reported; no effects"}, "[4]": {"system": "Daphnia magna", "conditions": "chronic/long-term; duration: 21 days; reproduction"}, "[5]": {"system": "Pleurozium sp.", "conditions": "acute; duration: 72 hours; biomass"}, "[6]": {"system": "Coturnix japonica", "conditions": "acute, oral, mortality"}, "[7]": {"system": "Anas platyrhynchos", "conditions": "for LD50: oral, mortality"}, "[8]": {"system": "Canidae", "conditions": "chronic; duration: 1 years; oral; Dog Other; hematological"}, "[9]": {"system": "Tagia sp.", "conditions": "acute; duration: 14 days; mortality"}, "[10]": {"system": "Colinus virginianus", "conditions": "reproduction developmental; reproduction"}, "[11]": {"system": "Apis mellifera", "conditions": "acute; duration: 48 hours; oral; unspecified; mortality"}, "[12]": {"system": "Typhlodromus pyri", "assay": "LR50; higher = less toxic"}},
  "data": [
    {"smiles": "CCCCCCCCCCCCC1=C(OC(C)=O)C(=O)c2ccccc2C1=O", "note": "[Acequinocyl]", "values": [
      {"measurement": "LC50", "setting": "[1]", "result": 65, "unit": "µg/mL"},
      {"measurement": "LD50", "setting": "[2]; acute, oral, mortality", "result": "> 4860", "unit": "mg/kg"},
      {"measurement": "NOAEL", "setting": "[2]; chronic, duration: 2 years", "result": 2.3, "unit": "mg/kg-day"},
      {"measurement": "NOAEL", "setting": "[2]; repeat dose other, oral", "result": 8, "unit": "mg/kg-day"},
      {"measurement": "NOAEL", "setting": "[2]; reproduction developmental", "result": 6.9, "unit": "mg/kg-day"},
      {"measurement": "LEL", "setting": "[3]", "result": 5000, "unit": "g/ha"},
      {"measurement": "NOEC", "setting": "[4]", "result": 0.00098, "unit": "mg/L"},
      {"measurement": "LC50", "setting": "[5]", "result": 0.93, "unit": "µg/mL"},
      {"measurement": "LD50", "setting": "[6]; diet", "result": "> 847", "unit": "mg/kg"},
      {"measurement": "LD50", "setting": "[6]", "result": "> 1940", "unit": "mg/kg"},
      {"measurement": "LD50", "setting": "[7]; acute, unspecified", "result": "> 1940", "unit": "mg/kg"},
      {"measurement": "NOEL", "setting": "[7]; reproductive, reproduction", "result": 7.48, "unit": "mg/kg"},
      {"measurement": "LD50", "setting": "[7]; short-term, feed", "result": "> 1340", "unit": "mg/kg"},
      {"measurement": "NOAEL", "setting": "[8]", "result": 5, "unit": "mg/kg-day"},
      {"measurement": "LC50", "setting": "[9]", "result": "> 1000", "unit": "mg/kg"},
      {"measurement": "NOEL", "setting": "[10]", "result": 217, "unit": "mg/kg-day"},
      {"measurement": "LD50", "setting": "[11]", "result": "> 100", "unit": "µg/piece"},
      {"measurement": "LR50", "setting": "[12]; acute, duration: 7 days, mortality", "result": 8.52, "unit": "g/ha"},
      {"measurement": "LR50", "setting": "[12]; not reported, reproduction", "result": 10, "unit": "g/ha"}
    ]}
  ]
}
